Measured values reported in patent US11612573B2, “Topical pharmaceutical compositions” (Dermavant Sciences GmbH, priority 2015, dated 2023).
Marks after values point to notes of the source that are not given here.

How the values were obtained:
[1] = Gao et al., Journal of Polymer Research 2011; cited from earlier work
[2] = solubility of the active ingredient in solvents; type: physicochemical
Protocol: The solubility of the active ingredient in different solvents was determined. […] The following formulations were prepared with 5%, 10%, 15% and 20% MCT (Formulations 15-18). Two formulations (Formulations 19 and 20) were also prepared where Polawax (a proprietary blend of cetostearyl alcohol and emulsifiers) was replaced with cetostearyl alcohol and additional emulsifier.

in vivo [3] = details: minipig, topical or ocular, 4 % cream, BID
AhR pathway = details: intestinal human colon adenocarcinoma
[4] = Dermal 4% cream, BID, Minipig, 13 weeks
[5] = 28 day twice daily topical administration, toxicokinetics, dermal irritancy and toxicity; type: in vivo, Gottingen minipigs; details: for concentration at 29 day: Skin Concentration
Protocol: Following dose application on each dosing day, the dose sites were semi-occluded for approximately 20±1 hours from the first dose and then gently washed before the next dose was applied.

in vivo [6] = details: rat, sc, 3 mg/kg/day

## CC(C)c1c(O)cc(/C=C/c2ccccc2)cc1O [3,5-Dihydroxy-4-isopropyl-trans-stilbene]
[1]
  sensitivity to oxidation and photo degradation: sensitive to oxidation and photo degradation
[2]
  solubility in medium chain triglycerides (MCT): good solubility
  solubility in water: not soluble
In vivo [3]
  AUC at 13 weeks: 99 ng·h/mL
  Cmax: 7.13 ng/mL
AhR pathway
  activity on the AhR pathway: activator
[4]
  Cmax NOAEL: 7.13* ng/mL
[5]; 28 days
  survival to scheduled necropsy: All animals survived
[5]; both sexes, Gottingen, minipig, in vivo, 60 mg/kg/day
  Tmax: 1 to 3 h
[5]; both sexes, Gottingen, minipig, in vivo, topical or ocular, highest dose tested, 28 days, read-out: NOAEL for dermal irritation or systemic toxicity
  NOAEL at 28 days: 60 mg/kg/day
[5]; female, Gottingen, minipig, 10 mg/kg/day, Epidermis/Upper Dermis
  concentration at 29 day: 2540 ng/g
[5]; female, Gottingen, minipig, 20 mg/kg/day, Epidermis/Upper Dermis
  concentration at 29 day: 2270 ng/g
[5]; female, Gottingen, minipig, 20 mg/kg/day, Lower Dermis
  concentration at 29 day: 305 ng/g
[5]; female, Gottingen, minipig, 60 mg/kg/day, Epidermis/Upper Dermis
  concentration at 29 day: 6530 ng/g
[5]; female, Gottingen, minipig, 60 mg/kg/day, Lower Dermis
  concentration at 29 day: 3040 ng/g
[5]; female, Gottingen, minipig, in vivo, topical or ocular, 60 mg/kg/day
  AUC(0-t): 4.84 ng·h/mL
[5]; male, Gottingen, minipig, 10 mg/kg/day, Epidermis/Upper Dermis
  concentration at 29 day: 4830 ng/g
[5]; male, Gottingen, minipig, 10 mg/kg/day, Lower Dermis
  concentration at 29 day: 166 ng/g
[5]; male, Gottingen, minipig, 20 mg/kg/day, Epidermis/Upper Dermis
  concentration at 29 day: 3950 ng/g
[5]; male, Gottingen, minipig, 20 mg/kg/day, Lower Dermis
  concentration at 29 day: 615 ng/g
[5]; male, Gottingen, minipig, 60 mg/kg/day, Epidermis/Upper Dermis
  concentration at 29 day: 10000 ng/g
[5]; male, Gottingen, minipig, 60 mg/kg/day, Lower Dermis
  concentration at 29 day: 3660 ng/g
[5]; minipig, in vivo, 60 mg/kg/day
  dermal irritation at the dose site: no test article-related dermal irritation
In vivo [6]
  Cmax: 31.6 ng/mL
